Test results: ChEMBL document CHEMBL3804813, “Discovery and optimization of new benzofuran derivatives against p53-independent malignant cancer cells through inhibition of HIF-1 pathway” (Bioorg Med Chem Lett, 2016)
Active and inactive are the calls of the source. The calls are words filed in the database; no cut-off is given here.

Assays:
[1] = Antiproliferative activity against human HCT116 cells expressing wild type p53 assessed as growth inhibition after 72 hrs by MTT assay; format: functional, cell-based; conditions: HCT-116, 72 h
[2] = Antiproliferative activity against human p53-null HCT116 cells assessed as growth inhibition after 72 hrs by MTT assay; format: functional, cell-based; conditions: HCT-116, 72 h
MCF7 = experiment: Antiproliferative activity against human MCF7 cells assessed as growth inhibition after 72 hrs by MTT assay; format: functional, cell-based; conditions: MCF7, 72 h
[3] = Antiproliferative activity against human MDA-MB-435S cells assessed as growth inhibition after 72 hrs by MTT assay; format: functional, cell-based
[4] = target: Hypoxia-inducible factor 1-alpha (Homo sapiens) (UniProt Q16665); experiment: Inhibition of HIF-1 (unknown origin) expressed in human MCF7 cells co-transfected with hypoxia reporter plasmid p(HRE)3-Luc at 20 uM measured under hypoxia condition after 24 hrs by dual-luciferase reporter assay; format: cell-based
[5] = Decrease in procaspase-3 expression level in human p53-null HCT116 -/- cells at 10 uM after 24 hrs by western blot analysis; format: functional, cell-based; conditions: HCT-116
[6] = Decrease in procaspase-9 expression level in human p53-null HCT116 -/- cells at 10 uM after 24 hrs by western blot analysis; format: functional, cell-based; conditions: HCT-116

Hypoxia-inducible factor 1-alpha (Homo sapiens), sequence (Q16665 whole entry, looked up): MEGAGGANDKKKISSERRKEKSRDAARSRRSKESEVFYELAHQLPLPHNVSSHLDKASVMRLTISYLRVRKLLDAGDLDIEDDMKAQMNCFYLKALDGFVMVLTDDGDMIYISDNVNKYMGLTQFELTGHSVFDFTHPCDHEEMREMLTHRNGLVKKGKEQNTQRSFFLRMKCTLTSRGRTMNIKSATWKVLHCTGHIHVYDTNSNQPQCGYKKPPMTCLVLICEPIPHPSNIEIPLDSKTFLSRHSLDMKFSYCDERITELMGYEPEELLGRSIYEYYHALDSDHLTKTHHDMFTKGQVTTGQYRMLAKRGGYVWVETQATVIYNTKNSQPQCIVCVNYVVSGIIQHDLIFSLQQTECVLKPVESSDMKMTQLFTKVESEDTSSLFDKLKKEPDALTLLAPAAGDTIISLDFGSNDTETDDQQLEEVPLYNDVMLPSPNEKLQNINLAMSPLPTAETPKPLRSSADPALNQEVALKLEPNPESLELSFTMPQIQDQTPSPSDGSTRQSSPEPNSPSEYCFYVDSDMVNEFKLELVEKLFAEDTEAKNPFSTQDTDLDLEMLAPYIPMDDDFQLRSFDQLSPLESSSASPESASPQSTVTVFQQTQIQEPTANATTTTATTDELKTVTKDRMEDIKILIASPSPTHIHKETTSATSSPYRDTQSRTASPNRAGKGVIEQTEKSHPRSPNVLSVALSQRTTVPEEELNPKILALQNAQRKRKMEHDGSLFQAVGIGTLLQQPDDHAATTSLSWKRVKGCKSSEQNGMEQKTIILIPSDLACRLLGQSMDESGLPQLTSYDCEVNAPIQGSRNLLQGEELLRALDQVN

SMILES | IC50 [1] [µM] | IC50 [2] [µM] | IC50 (MCF7) [µM] | IC50 [3] [µM] | inhibition [4] [%] | inhibition [5] | inhibition [6]
CCOC(=O)c1oc2ccc(NS(=O)(=O)c3ccc(Cl)cc3)cc2c1C | 24.3 | > 40 |  |  |  |  | 
Cc1c(C(=O)O)oc2ccc(N(Cc3ccc(Br)cc3)S(=O)(=O)c3ccc(Br)cc3)cc12 | 8.58 | > 40 |  |  |  |  | 
Cc1c(C(=O)NCCCn2ccnc2)oc2ccc(N(Cc3ccccc3)S(=O)(=O)c3ccc(Cl)cc3)cc12 | 17.1 | 5 | 31.8 | 5.6 | 32.3 |  | 
CCOC(=O)c1oc2ccc(N(Cc3ccc(Cl)cc3)S(=O)(=O)c3ccc(Cl)cc3)cc2c1C | 9.48 | 9.64 |  |  |  |  | 
CCOC(=O)c1oc2ccc(N(Cc3ccccc3)S(=O)(=O)c3ccccc3)cc2c1C | > 40 | > 40 |  |  |  |  | 
CCOC(=O)c1oc2ccc(N(Cc3ccccc3)S(=O)(=O)c3ccc(Br)cc3)cc2c1C | 9.46 | 8.7 |  |  |  |  | 
CCOC(=O)c1oc2ccc(N(Cc3ccccc3)S(=O)(=O)c3ccc(C(F)(F)F)cc3)cc2c1C | 26.7 | 12.7 |  |  |  |  | 
Cc1c(C(=O)NCCN(C)C)oc2ccc(N(Cc3ccccc3)S(=O)(=O)c3ccc(Cl)cc3)cc12 | 7.06 | 6.31 | 6.72 | 9.24 | < 10 |  | 
Cc1c(C(=O)O)oc2ccc(N(Cc3ccccc3)S(=O)(=O)c3ccc(C(F)(F)F)cc3)cc12 | 4.13 | 21.1 |  |  |  |  | 
CCOC(=O)c1oc2ccc(N(Cc3ccccc3)S(=O)(=O)c3ccc(F)cc3)cc2c1C | 5.82 | 33.1 |  |  |  |  | 
CCOC(=O)c1oc2ccc(N(Cc3ccccc3)S(=O)(=O)c3ccc([N+](=O)[O-])cc3)cc2c1C | > 40 | > 40 |  |  |  |  | 
Cc1c(C(=O)NCCN(C)C)oc2ccc(N(Cc3ccc(Cl)cc3)S(=O)(=O)c3ccc(Cl)cc3)cc12 | 5.38 | 3.87 | 5.84 | 10.8 | 12.7 |  | 
CCOC(=O)c1oc2ccc(N(CC3CCCCC3)S(=O)(=O)c3ccc(Cl)cc3)cc2c1C | 14.1 | > 40 |  |  |  |  | 
COc1ccc(C2=N[C@@H](c3ccc(Cl)cc3)[C@@H](c3ccc(Cl)cc3)N2C(=O)N2CCNC(=O)C2)c(OC(C)C)c1 [NUTLIN-3] | 5.21 | 21.5 | 5.01 | 29.6 | < 10 | inactive | inactive
CCOC(=O)c1oc2ccc(N(Cc3ccccc3)S(=O)(=O)c3ccccc3Br)cc2c1C | > 40 | > 40 |  |  |  |  | 
Cc1c(C(=O)O)oc2ccc(N(Cc3ccccc3)S(=O)(=O)c3ccc(Br)cc3)cc12 | 7.09 | 20 |  |  |  |  | 

SMILES | IC50 [1] [µM] | IC50 [2] [µM] | IC50 (MCF7) [µM] | IC50 [3] [µM] | inhibition [4] [%] | inhibition [5] | inhibition [6]
Cc1c(C(=O)O)oc2ccc(N(Cc3ccccc3)S(=O)(=O)c3ccc(Cl)cc3)cc12 | 9.13 | 33.4 |  |  |  |  | 
CCOC(=O)c1oc2ccc(N(C(C)C)S(=O)(=O)c3ccc(Cl)cc3)cc2c1C | 7.83 | > 40 |  |  |  |  | 
CCOC(=O)c1oc2ccc(N(Cc3ccccc3)S(=O)(=O)c3ccc(Cl)cc3)cc2c1C | 4.86 | 23.2 |  |  |  |  | 
CCOC(=O)c1oc2ccc(N(Cc3ccccc3)S(=O)(=O)c3cccc(Br)c3)cc2c1C | > 40 | > 40 |  |  |  |  | 
CCOC(=O)c1oc2ccc(NS(=O)(=O)c3ccc(F)cc3)cc2c1C | 10.5 | > 40 |  |  |  |  | 
COc1ccc(N(Cc2ccccc2)S(=O)(=O)c2ccc(Cl)cc2)cc1 | 18.3 | > 40 |  |  |  |  | 
Cc1c(C(=O)NCCCn2ccnc2)oc2ccc(N(Cc3ccc(Cl)cc3)S(=O)(=O)c3ccc(Cl)cc3)cc12 | 2.43 | 1.89 | > 40 | 7.25 | 27 |  | 
CCOC(=O)c1oc2ccc(N(Cc3ccccc3)S(=O)(=O)c3cccc(Cl)c3)cc2c1C | > 40 | > 40 |  |  |  |  | 
CCOC(=O)c1oc2ccc(N(Cc3ccccc3)S(=O)(=O)c3ccc(OC)cc3)cc2c1C | > 40 | > 40 |  |  |  |  | 
Cc1c(C(=O)O)oc2ccc(N(Cc3ccc(Cl)cc3)S(=O)(=O)c3ccc(Cl)cc3)cc12 | 3.67 | 27.2 |  |  |  |  | 
Cc1c(C(=O)O)oc2ccc(N(Cc3ccccc3)S(=O)(=O)c3ccc(F)cc3)cc12 | > 40 | > 40 |  |  |  |  | 
CCOC(=O)c1oc2ccc(N(Cc3ccccc3)S(=O)(=O)c3ccc(C)cc3)cc2c1C | > 40 | > 40 |  |  |  |  | 
CCOC(=O)c1oc2ccc(NS(=O)(=O)c3ccc(Br)cc3)cc2c1C | 9.31 | > 40 |  |  |  |  | 
CCOC(=O)c1oc2ccc(NS(=O)(=O)c3ccc(C(F)(F)F)cc3)cc2c1C | 5.03 | 24.2 |  |  |  |  | 
CCOC(=O)c1oc2ccc(N(Cc3ccc(Br)cc3)S(=O)(=O)c3ccc(Br)cc3)cc2c1C | 10.9 | 5.22 |  |  |  |  | 
